Read-outs that look alike come from different tables or passages of the source.
Key:
MOLT-4 = assay: NCI five-dose assay; assay type: cell-based, human; conditions: MOLT-4, Leukemia
HOP-62 = assay: NCI five-dose assay; assay type: cell-based, human; conditions: HOP-62, Non-small cell lung cancer
NCI-H23 = assay: NCI five-dose assay; assay type: cell-based, human; conditions: NCI-H23, Non-small cell lung cancer
COLO205 = assay: NCI five-dose assay; assay type: cell-based, human; conditions: COLO205, Colon cancer
HCT-116 = assay: NCI five-dose assay; assay type: cell-based, human; conditions: HCT-116, Colon cancer
KM12 = assay: NCI five-dose assay; assay type: cell-based, human; conditions: KM12, Colon cancer
SNB-75 = assay: NCI five-dose assay; assay type: cell-based, human; conditions: SNB-75, CNS cancer
U251 = assay: NCI five-dose assay; assay type: cell-based, human; conditions: U251, CNS cancer
LOX IMVI = assay: NCI five-dose assay; assay type: cell-based, human; conditions: Melanoma
MDA-MB-435 = assay: NCI five-dose assay; assay type: cell-based, human; conditions: MDA-MB-435, Melanoma
SK-MEL-5 = assay: NCI five-dose assay; assay type: cell-based, human; conditions: SK-MEL-5, Melanoma
UACC-257 = assay: NCI five-dose assay; assay type: cell-based, human; conditions: UACC-257, Melanoma
UACC-62 = assay: NCI five-dose assay; assay type: cell-based, human; conditions: UACC-62, Melanoma
OVCAR-3 = assay: NCI five-dose assay; assay type: cell-based, human; conditions: OVCAR-3, Ovarian cancer
OVCAR-4 = assay: NCI five-dose assay; assay type: cell-based, human; conditions: OVCAR-4, Ovarian cancer
TK-10 = assay: NCI five-dose assay; assay type: cell-based, human; conditions: TK-10, Renal cancer
DU-145 = assay: NCI five-dose assay; assay type: cell-based, human; conditions: DU-145, Prostate cancer
MCF7 = assay: NCI five-dose assay; assay type: cell-based, human; conditions: MCF7, Breast cancer
HS 578T = assay: NCI five-dose assay; assay type: cell-based, human; conditions: Breast cancer
BT-549 = assay: NCI five-dose assay; assay type: cell-based, human; conditions: BT-549, Breast cancer
T-47D = assay: NCI five-dose assay; assay type: cell-based, human; conditions: Breast cancer
Leukemia subpanel = assay: NCI five-dose assay, subpanel mean; assay type: cell-based, human
Melanoma subpanel = assay: NCI five-dose assay, subpanel mean; assay type: cell-based, human
Breast cancer subpanel = assay: NCI five-dose assay, subpanel mean; assay type: cell-based, human
tubulin = target: T1, tubulin (Sus scrofa, UniProt P02550+P02554); assay: Tubulin polymerization inhibitory assay; assay type: biochemical
T1 construct: purchased Cytoskeleton Inc., Denver, CO, USA
T1 sequence (P02554 whole entry): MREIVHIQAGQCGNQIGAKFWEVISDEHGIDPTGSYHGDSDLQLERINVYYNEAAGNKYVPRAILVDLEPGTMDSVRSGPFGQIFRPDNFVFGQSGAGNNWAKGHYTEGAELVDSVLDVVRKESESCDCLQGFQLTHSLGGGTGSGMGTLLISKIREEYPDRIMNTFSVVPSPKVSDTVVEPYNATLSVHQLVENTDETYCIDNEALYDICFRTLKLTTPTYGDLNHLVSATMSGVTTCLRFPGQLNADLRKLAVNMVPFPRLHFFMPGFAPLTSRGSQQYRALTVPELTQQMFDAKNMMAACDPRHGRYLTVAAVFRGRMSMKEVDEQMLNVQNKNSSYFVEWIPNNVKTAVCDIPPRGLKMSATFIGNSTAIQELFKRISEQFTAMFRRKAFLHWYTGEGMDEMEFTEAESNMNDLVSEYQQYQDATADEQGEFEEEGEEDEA
T1 sequence (P02550 whole entry): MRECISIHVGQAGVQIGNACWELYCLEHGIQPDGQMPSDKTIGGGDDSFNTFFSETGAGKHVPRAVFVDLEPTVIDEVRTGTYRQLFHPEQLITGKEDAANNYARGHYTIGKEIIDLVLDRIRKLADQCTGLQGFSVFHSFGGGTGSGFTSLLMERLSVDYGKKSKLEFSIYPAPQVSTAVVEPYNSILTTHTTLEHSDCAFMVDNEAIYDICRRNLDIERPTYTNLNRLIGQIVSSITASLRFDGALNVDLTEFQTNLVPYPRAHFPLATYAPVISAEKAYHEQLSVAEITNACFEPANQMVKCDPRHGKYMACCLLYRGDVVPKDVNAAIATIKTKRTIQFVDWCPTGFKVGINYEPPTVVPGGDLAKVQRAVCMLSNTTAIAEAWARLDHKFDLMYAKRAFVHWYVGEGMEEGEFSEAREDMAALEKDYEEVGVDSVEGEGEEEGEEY
From the text: The substances’ effects on tubulin polymerization were examined using the Tubulin Polymerization Assay Kit (Cytoskeleton Inc., Denver, CO, USA) according to the supplier’s instructions, with details described in Appendix A..
The activity of compounds on tubulin polymerization was investigated using the Tubulin Polymerization Assay Kit (Cytoskeleton Inc., Denver, CO, USA), which works via fluorescent reporter enhancement. […] Docetaxel and vincristine (Apoteket AB, Stockholm, Sweden) served as positive stabilizing and destabilizing controls. Both were used at a 3 µM concentration in PBS.

[1] = Homo sapiens, 48 h, read-out: LC50 (the source's name)
[2] = Homo sapiens, read-out: GI50 Conc. per Cell Lines

Cc1ccc(C(=O)CSc2nnc(-c3c[nH]c4ccccc34)n2-c2ccccc2)cc1 [Compound 6h, 2-((5-(1H-Indol-3-yl)-4-phenyl-4H-1,2,4-triazol-3-yl)thio)-1-(p-tolyl)ethenone]
CC50 (MOLT-4; [1]): > 100 µM | GI50 (MOLT-4; [2]): 21.8 µM | TGI Conc. per Cell Lines (MOLT-4): ˃100 µM | TGI Conc. per Cell Lines (HOP-62): 35.90 µM | CC50 (HOP-62; [1]): 80 µM | GI50 (HOP-62; [2]): 16.1 µM | CC50 (NCI-H23; [1]): 54.9 µM | GI50 (NCI-H23; [2]): 13.7 µM | TGI Conc. per Cell Lines (NCI-H23): 27.50 µM | TGI Conc. per Cell Lines (COLO205): >100 µM | CC50 (COLO205; Homo sapiens, COLO 205, 48 h, read-out: LC50 (the source's name)): > 100 µM | GI50 (COLO205; Homo sapiens, COLO 205, read-out: GI50 Conc. per Cell Lines): 34.4 µM | TGI Conc. per Cell Lines (HCT-116): 60.40 µM | CC50 (HCT-116; [1]): > 100 µM | GI50 (HCT-116; [2]): 18.7 µM | CC50 (KM12; [1]): > 100 µM | GI50 (KM12; [2]): 36.1 µM | TGI Conc. per Cell Lines (KM12): >100 µM | CC50 (SNB-75; [1]): 68 µM | GI50 (SNB-75; [2]): 12.9 µM | TGI Conc. per Cell Lines (SNB-75): 29.60 µM | CC50 (U251; Homo sapiens, U-251, 48 h, read-out: LC50 (the source's name)): > 100 µM | GI50 (U251; Homo sapiens, U-251, read-out: GI50 Conc. per Cell Lines): 23.6 µM | TGI Conc. per Cell Lines (U251): 65.60 µM | GI50 (LOX IMVI; [2]): 14.3 µM | TGI Conc. per Cell Lines (LOX IMVI): 27.30 µM | CC50 (MDA-MB-435; [1]): > 100 µM | GI50 (MDA-MB-435; [2]): 22.8 µM | TGI Conc. per Cell Lines (MDA-MB-435): 65.40 µM | CC50 (SK-MEL-5; [1]): 92.4 µM | GI50 (SK-MEL-5; [2]): 16.5 µM | TGI Conc. per Cell Lines (SK-MEL-5): 39.10 µM | CC50 (UACC-257; [1]): > 100 µM | GI50 (UACC-257; [2]): 28.9 µM | TGI Conc. per Cell Lines (UACC-257): >100 µM | CC50 (UACC-62; [1]): 95.1 µM | GI50 (UACC-62; [2]): 15.3 µM | TGI Conc. per Cell Lines (UACC-62): 38.10 µM | LC50 (OVCAR-3; Homo sapiens, 48 h): > 100 µM | GI50 (OVCAR-3; [2]): 18 µM | TGI Conc. per Cell Lines (OVCAR-3): 43.20 µM | LC50 (OVCAR-4; Homo sapiens, 48 h): > 100 µM | GI50 (OVCAR-4; [2]): 14.5 µM | TGI Conc. per Cell Lines (OVCAR-4): 41.50 µM | CC50 (TK-10; [1]): 85 µM | GI50 (TK-10; [2]): 23.2 µM | TGI Conc. per Cell Lines (TK-10): 44.40 µM | TGI Conc. per Cell Lines (DU-145): >100 µM | CC50 (DU-145; [1]): > 100 µM | GI50 (DU-145; [2]): 4.43 µM | LC50 (MCF7; Homo sapiens, 48 h): 98.1 µM | GI50 (MCF7; [2]): 15.7 µM | TGI Conc. per Cell Lines (MCF7): 39.20 µM | TGI Conc. per Cell Lines (HS 578T): 56.30 µM | LC50 (HS 578T; Homo sapiens, 48 h): > 100 µM | GI50 (HS 578T; [2]): 14.1 µM | TGI Conc. per Cell Lines (BT-549): 46.70 µM | CC50 (BT-549; [1]): 87.2 µM | GI50 (BT-549; [2]): 25.1 µM | TGI Conc. per Cell Lines (T-47D): ˃100 µM | LC50 (concentration killing 50% of cells) (T-47D; Homo sapiens, T47D, 48 h): > 100 µM | GI50 (T-47D; Homo sapiens, T47D, read-out: GI50 Conc. per Cell Lines): 24.9 µM | GI50 (Leukemia subpanel; Homo sapiens, average sensitivity of all cell lines of the Leukemia subpanel, read-out: GI50 Subpanel MID b): 33.5 µM | GI50 Selectivity Ratio (MID a/MID b) (Leukemia subpanel; Leukemia subpanel): 0.58 | GI50 (Melanoma subpanel; Homo sapiens, average sensitivity of all cell lines of the Melanoma subpanel, read-out: GI50 Subpanel MID b): 21.8 µM | GI50 Selectivity Ratio (MID a/MID b) (Melanoma subpanel; Melanoma subpanel): 0.88 | GI50 Selectivity Ratio (MID a/MID b) (Breast cancer subpanel; Breast cancer subpanel): 1.07 | GI50 (Breast cancer subpanel; Homo sapiens, average sensitivity of all cell lines of the Breast cancer subpanel, read-out: GI50 Subpanel MID b): 18 µM | tubulin inhibitory activity, times lower than compound 7j (tubulin): 1.5 times | %inhibition (tubulin; conc 0.01 (unit not given; IC50 from this curve in µg/ml)): 5.97% | %inhibition (tubulin; conc 0.1 (unit not given; IC50 from this curve in µg/ml)): 16.8% | %inhibition (tubulin; conc 1 (unit not given; IC50 from this curve in µg/ml)): 30% | %inhibition (tubulin; conc 10 (unit not given; IC50 from this curve in µg/ml)): 58% | %inhibition (tubulin; conc 100 (unit not given; IC50 from this curve in µg/ml)): 81.2% | IC50 (tubulin; read-out: Tub. IC50±SD (converted)): 9.51 µM | IC50 (tubulin; read-out: Tubulin Inhibitory Effect, IC50): 9.5 ± 0.3 µM

Reference: publication PMC11859928, “Design, Synthesis, and Antiproliferative Activity of Novel Indole/1,2,4-Triazole Hybrids as Tubulin Polymerization Inhibitors” (Pharmaceuticals, 2025)
